# Measurements as given in patent US8609715B2, “Heteroarylcarboxylic acid ester derivative” (Ajinomoto Co., Inc., priority 2009, dated 2013).
# Structures can show the parent of a compound that is named as a salt.
# Molecular target: recombinant human enteropeptidase (Homo sapiens (Human), UniProt P98073)
# Test: Measurement of enteropeptidase inhibitory activity
# Assay type: biochemical
# Conditions: Dixon plot
# Protocol: Measurement of Enteropeptidase Inhibitory Activity
# Using a 96 well plate (#3915, Costar), a test compound (25 μL), 400 mM Tris-HCl buffer (pH 8.0, 25 μL) and 0.5 mg/mL fluorescence enzyme substrate (Gly-Asp-Asp-Asp-Asp-Lys-β-Naphtylamide, 25 μL) were mixed, and recombinant human enteropeptidase (R&D Systems, Inc., 25 μL) was added. Using a fluorescence plate reader fmax (Molecular Devices, Inc.), the reaction rate was measured from the time-course changes at excitation wavelength 320 nm and fluorescence wavelength 405 nm. The Ki value was calculated from the concentration of the test compound, reciprocal of reaction rate, and Km value of the enzyme substrate, and by using Dixon plot.
# Sequence of recombinant human enteropeptidase (P98073 whole entry): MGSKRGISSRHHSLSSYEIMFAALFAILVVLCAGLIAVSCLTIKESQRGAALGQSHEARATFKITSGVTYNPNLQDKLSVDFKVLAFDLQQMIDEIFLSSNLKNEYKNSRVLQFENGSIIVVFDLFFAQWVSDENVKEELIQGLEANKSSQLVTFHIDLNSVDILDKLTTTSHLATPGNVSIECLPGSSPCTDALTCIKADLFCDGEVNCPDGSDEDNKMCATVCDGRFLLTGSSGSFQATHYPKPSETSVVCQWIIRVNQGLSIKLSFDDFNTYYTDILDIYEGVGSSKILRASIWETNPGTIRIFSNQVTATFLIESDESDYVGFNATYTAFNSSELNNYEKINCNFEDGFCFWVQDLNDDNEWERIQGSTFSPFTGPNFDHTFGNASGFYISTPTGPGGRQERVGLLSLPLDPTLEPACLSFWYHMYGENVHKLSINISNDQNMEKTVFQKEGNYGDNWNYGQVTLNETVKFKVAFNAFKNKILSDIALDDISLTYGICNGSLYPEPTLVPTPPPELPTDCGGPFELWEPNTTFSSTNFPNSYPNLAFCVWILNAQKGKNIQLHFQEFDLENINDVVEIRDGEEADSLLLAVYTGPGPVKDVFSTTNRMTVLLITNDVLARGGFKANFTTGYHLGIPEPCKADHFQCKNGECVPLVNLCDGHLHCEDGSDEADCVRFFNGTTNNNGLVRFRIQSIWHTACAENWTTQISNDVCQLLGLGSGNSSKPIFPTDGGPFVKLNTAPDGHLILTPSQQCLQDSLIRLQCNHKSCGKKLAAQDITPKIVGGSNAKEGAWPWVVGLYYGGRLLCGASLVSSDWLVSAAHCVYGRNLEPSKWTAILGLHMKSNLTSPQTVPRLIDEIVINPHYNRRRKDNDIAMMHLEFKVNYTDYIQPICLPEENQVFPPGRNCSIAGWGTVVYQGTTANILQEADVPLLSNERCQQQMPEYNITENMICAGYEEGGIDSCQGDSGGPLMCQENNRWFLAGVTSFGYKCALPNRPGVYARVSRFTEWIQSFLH
row,Compound,Ki [pM]
1,"N=C(N)c1ccc(OC(=O)c2ccc(CC(CCC(=O)O)C(=O)N[C@@H](CC(=O)O)C(=O)O)o2)cc1 (stereo partly drawn) [Compound A-61, N-{3-[5-(4-amidinophenoxycarbonyl)-furan-2-yl]-2-(carboxyethyl)propanoyl}-L-aspartic acid trifluoroacetic acid salt]",420
2,"CC(Cc1cc(C(=O)Oc2ccc(C(=N)N)cc2)co1)C(=O)N[C@@H](CC(=O)O)C(=O)O (stereo partly drawn) [Compound A-62, N-{3-[4-(4-amidinophenoxycarbonyl)-furan-2-yl]-2-methylpropanoyl}-L-aspartic acid trifluoroacetic acid salt]",2100
3,"CC(Cc1cc(C(=O)Oc2ccc(C(=N)N)cc2F)co1)C(=O)O (stereo not shown) [Compound A-63, 3-[4-(4-amidino-2-fluorophenoxycarbonyl)furan-2-yl]-2-methylpropanoic acid trifluoroacetic acid salt]",530
4,CC(Cc1cc(C(=O)Oc2ccc(C(=N)N)cc2)co1)C(=O)NCP(=O)(O)O (stereo not shown) [Compound A-64],2500
5,CC(Cc1cc(C(=O)Oc2ccc(C(=N)N)cc2)co1)C(=O)N[C@@H](CS(=O)(=O)O)C(=O)O (stereo partly shown) [Compound A-65],1000
6,CC(Cc1cc(C(=O)Oc2ccc(C(=N)N)cc2F)co1)C(=O)N[C@@H](CC(=O)O)C(=O)O (stereo partly shown) [Compound A-66],320
7,"CC(Cc1coc(C(=O)Oc2ccc(C(=N)N)cc2)c1)C(=O)N[C@@H](CC(=O)O)C(=O)O (stereo partly drawn) [Compound A-67, N-[3-[2-(4-amidinophenoxycarbonyl)-furan-4-yl]-2-methylpropanoyl]-L-aspartic acid trifluoroacetic acid salt]",520
8,"N=C(N)c1ccc(OC(=O)c2ccc(-c3ccc(C(=O)N[C@@H](CC(=O)O)C(=O)O)cc3)o2)cc1 [Compound A-68, N-{4-[5-(4-amidinophenoxycarbonyl)-furan-2-yl]benzoyl}-L-aspartic acid trifluoroacetic acid salt]",2200
9,N=C(N)c1ccc(OC(=O)c2ccc(-c3ccc(C(=O)NCC(=O)O)cc3)o2)cc1 [Compound A-69],4700
10,N=C(N)c1ccc(OC(=O)c2ccc(-c3ccc(C(=O)NCP(=O)(O)O)cc3)o2)cc1 [Compound A-70],2700
11,"N=C(N)c1ccc(OC(=O)c2ccc(-c3cccc(C(=O)N[C@@H](CC(=O)O)C(=O)O)c3)o2)cc1 [Compound A-71, N-{3-[5-(4-amidinophenoxycarbonyl)-furan-2-yl]benzoyl}-L-aspartic acid trifluoroacetic acid salt]",1600
12,"CC(Cc1ccc(C(=O)Oc2ccc(C(=N)N)cc2)o1)C(=O)SC(CC(=O)O)C(=O)O (stereo not drawn) [Compound A-73, S-{3-[5-(4-amidinophenoxycarbonyl)-furan-2-yl]-2-methylpropionyl}thiomalic acid trifluoroacetic acid salt]",880
13,"CC(Cc1ccc(C(=O)Oc2ccc(C(=N)N)cc2)o1)C(=O)NN(CC(=O)O)CC(=O)O (stereo not shown) [Compound A-74, (N′-carboxymethyl-{3-[5-(4-amidinophenoxycarbonyl)furan-2-yl]-2-methylpropane}hydrazido)-acetic acid trifluoroacetic acid salt]",2600
14,C/C(=C\c1ccc(C(=O)Oc2ccc(C(=N)N)cc2)s1)C(=O)NCC(=O)O [Compound B-2],9290
15,C/C(=C\c1ccc(C(=O)Oc2ccc(C(=N)N)cc2)s1)C(=O)N[C@@H](CO)C(=O)O [Compound B-3],5720
16,"CC(Cc1ccc(C(=O)Oc2ccc(C(=N)N)cc2)s1)C(=O)O (stereo not shown) [Compound B-6, 3-[5-(4-amidinophenoxycarbonyl)-thiophen-2-yl]-2-methylpropanoic acid trifluoroacetic acid salt]",1440
17,"C/C(=C\c1ccc(C(=O)Oc2ccc(C(=N)N)cc2)s1)C(=O)N(CCCO)CCS(=O)(=O)O [Compound B-7, N-{(2E)-3-[5-(4-amidinophenoxycarbonyl)thiophen-2-yl]-2-methylpropenoyl}-N-hydroxypropyltaurine trifluoroacetic acid salt]",2150
18,C/C(=C\c1ccc(C(=O)Oc2ccc(C(=N)N)cc2[N+](=O)[O-])s1)C(=O)O [Compound B-8],840
19,"CC(Cc1ccc(C(=O)Oc2ccc(C(=N)N)cc2[N+](=O)[O-])s1)C(=O)N(CCCO)CC(=O)O (stereo not shown) [Compound B-11, N-{3-[5-(4-amidino-2-nitrophenoxycarbonyl)thiophen-2-yl]-2-methylpropanoyl}-N-(3-hydroxypropyl)glycine hydrochloride]",1410
20,CC(Cc1ccc(C(=O)Oc2ccc(C(=N)N)cc2)s1)C(=O)NCC(=O)O (stereo not shown) [Compound B-12],2210
21,"CC(Cc1ccc(C(=O)Oc2ccc(C(=N)N)cc2Br)s1)C(=O)O (stereo not shown) [Compound B-16, 3-[5-(4-amidino-2-bromophenoxycarbonyl)thiophen-2-yl]-2-methylpropionic acid trifluoroacetic acid salt]",290
22,CC(Cc1ccc(C(=O)Oc2ccc(C(=N)N)cc2Cl)s1)C(=O)O (stereo not shown) [Compound B-17],420
23,CC(Cc1ccc(C(=O)Oc2ccc(C(=N)N)cc2F)s1)C(=O)O (stereo not shown) [Compound B-19],420
24,CC(Cc1ccc(C(=O)Oc2ccc(C(=N)N)cc2F)s1)C(=O)N[C@@H](CC(=O)O)C(=O)O (stereo partly shown) [Compound B-20],280
25,CC(Cc1ccc(C(=O)Oc2ccc(C(=N)N)cc2F)s1)C(=O)N[C@@H](CCC(=O)O)C(=O)O (stereo partly shown) [Compound B-21],560

row,Compound,Ki [pM]
1,CC(Cc1ccc(C(=O)Oc2ccc(C(=N)N)cc2F)s1)C(=O)N[C@H](CC(=O)O)C(=O)O (stereo partly shown) [Compound B-22],500
2,CC(Cc1ccc(C(=O)Oc2ccc(C(=N)N)c(F)c2)s1)C(=O)O (stereo not shown) [Compound B-24],490
3,"C[C@H](Cc1ccc(C(=O)Oc2ccc(C(=N)N)cc2F)s1)C(=O)N[C@@H](CC(=O)O)C(=O)O [Compound B-25, N-{3-[5-(4-amidino-2-fluorophenoxycarbonyl)thiophen-2-yl]-2R-methylpropionyl}-L-aspartic acid trifluoroacetic acid salt]",790
4,"CC(C)C[C@H](Cc1ccc(C(=O)Oc2ccc(C(=N)N)cc2F)s1)C(=O)N[C@@H](CC(=O)O)C(=O)O [Compound B-26, N-{3-[5-(4-amidino-2-fluorophenoxycarbonyl)thiophen-2-yl]-2R-isobutylpropionyl}-L-aspartic acid trifluoroacetic acid salt]",2200
5,CC(C)C[C@@H](Cc1ccc(C(=O)Oc2ccc(C(=N)N)cc2F)s1)C(=O)N[C@@H](CC(=O)O)C(=O)O [Compound B-27],950
6,CCC[C@H](Cc1ccc(C(=O)Oc2ccc(C(=N)N)cc2F)s1)C(=O)N[C@@H](CC(=O)O)C(=O)O [Compound B-28],1100
7,CCC[C@@H](Cc1ccc(C(=O)Oc2ccc(C(=N)N)cc2F)s1)C(=O)N[C@@H](CC(=O)O)C(=O)O [Compound B-29],580
8,CC(Cc1ccc(C(=O)Oc2ccc(C(=N)N)c(F)c2)s1)C(=O)N[C@@H](CC(=O)O)C(=O)O (stereo partly shown) [Compound B-30],520
9,"N=C(N)c1ccc(OC(=O)c2ccc(CCC(=O)N[C@@H](CC(=O)O)C(=O)O)s2)c(F)c1 [Compound B-32, N-{3-[5-(4-amidino-2-fluorophenoxycarbonyl)thiophen-2-yl]propanoyl}-L-aspartic acid trifluoroacetic acid salt]",310
10,CCCC(Cc1ccc(C(=O)Oc2ccc(C(=N)N)cc2)s1)C(=O)N[C@@H](CC(=O)O)C(=O)O (stereo partly shown) [Compound B-33],2800
11,CC(Cc1ccc(C(=O)Oc2ccc(C(=N)N)cc2F)s1)C(=O)N1CCCC(C(=O)O)C1 (stereo not shown) [Compound B-34],2200
12,CC(Cc1ccc(C(=O)Oc2ccc(C(=N)N)cc2F)s1)C(=O)N[C@@H](CO)C(=O)O (stereo partly shown) [Compound B-35],400
13,N=C(N)c1ccc(OC(=O)c2ccc(CCC(=O)N[C@H](CC(=O)O)C(=O)O)s2)c(F)c1 [Compound B-36],510
14,N=C(N)c1ccc(OC(=O)c2ccc(CCC(=O)N(CCC(=O)O)CC(=O)O)s2)c(F)c1 [Compound B-37],500
15,"C=CCN(CC(=O)O)C(=O)CCc1ccc(C(=O)Oc2ccc(C(=N)N)cc2F)s1 [Compound B-38, N-{3-[5-(4-amidino-2-fluorophenoxycarbonyl)thiophen-2-yl]propionyl}-N-allylglycine trifluoroacetic acid salt]",750
16,"CC(Cc1ccc(C(=O)Oc2ccc(C(=N)N)cc2)s1)C(=O)N[C@@H](CS(=O)(=O)O)C(=O)O (stereo partly drawn) [Compound B-39, N-{3-[5-(4-amidinophenoxycarbonyl)-thiophen-2-yl]-2-methylpropanoyl}-L-cysteic acid trifluoroacetic acid salt]",950
17,"CC(Cc1ccc(C(=O)Oc2ccc(C(=N)N)cc2)s1)C(=O)NCP(=O)(O)O (stereo not shown) [Compound B-40, N-{3-[5-(4-amidinophenoxycarbonyl)-thiophen-2-yl]-2-methylpropanoyl}aminomethylphosphonic acid trifluoroacetic acid salt]",2000
18,CC(Cc1ccc(C(=O)Oc2ccc(C(=N)N)cc2F)s1)C(=O)N[C@@H](CS(=O)(=O)O)C(=O)O (stereo partly shown) [Compound B-41],270
19,CC(Cc1ccc(C(=O)Oc2ccc(C(=N)N)cc2F)s1)C(=O)NCP(=O)(O)O (stereo not shown) [Compound B-42],370
20,CC(Cc1ccc(C(=O)Oc2ccc(C(=N)N)cc2Cl)s1)C(=O)NCP(=O)(O)O (stereo not shown) [Compound B-43],420
21,CC(Cc1ccc(C(=O)Oc2ccc(C(=N)N)cc2Cl)s1)C(=O)N[C@@H](CS(=O)(=O)O)C(=O)O (stereo partly shown) [Compound B-44],210
22,CC(CCC(=O)O)Cc1ccc(C(=O)Oc2ccc(C(=N)N)cc2)s1 (stereo not shown) [Compound B-47],2500
23,CC(CCC(=O)O)Cc1ccc(C(=O)Oc2ccc(C(=N)N)cc2F)s1 (stereo not shown) [Compound B-48],880
24,CC(CCC(=O)N[C@@H](CC(=O)O)C(=O)O)Cc1ccc(C(=O)Oc2ccc(C(=N)N)cc2F)s1 (stereo partly shown) [Compound B-49],410
